Source: the NIST ThermoML archive (doi:10.1016/j.fluid.2016.08.041)
Numbers after ± are expanded uncertainties.

How the values were obtained:
[1] = refractive index (Na D-line) (dimensionless); conditions: 298.2 K; 101.33 kPa; Liquid; Standard Abbe refractometry
[2] = 298.2 K; 101.33 kPa; Liquid; Vibrating tube method

| SMILES | refractive index [1] | mass density [2] [kg/m3] |
| --- | --- | --- |
| CC(C)CCO [3-methylbutan-1-ol] | 1.40528 ± 0.00042 | 807.16 ± 0.35 |
| CCCCC(=O)OCC [ethyl pentanoate] | 1.39841 ± 0.00042 | 872.36 ± 0.36 |
| O=CO [formic acid] | 1.36939 ± 0.00042 | 1214.1 ± 0.51 |

Results, then the compound that gave them:

| refractive index [1] | mass density [2] [kg/m3] | SMILES |
| --- | --- | --- |
| 1.43485 ± 0.00042 | 959.18 ± 0.37 | CCOC(=O)CCCCCCCCC(=O)OCC [diethyl decanedioate] |
| 1.41967 ± 0.00042 | 1035.34 ± 0.4 | CCOC(=O)CCC(=O)OCC [diethyl butanedioate] |
| 1.41572 ± 0.00042 | 862.23 ± 0.36 | CCCCCCCC(=O)OCC [ethyl octanoate] |
